“Also recorded” adds a separate entry of the source.
Experiments:
[1] = tested on: U1242 cells; experiment: Proteome Profiler Human Protease Array of conditioned media after radiation; format: cell-based; conditions: 50 μM PDZ1i 2 hrs prior to radiation
Description: FIGS. 10A-10L, PDZ1i inhibits key invasion proteins. U1242 cells were treated with either DMSO or 50 μM PDZ1i 2 hrs prior to radiation in serum-free media. After 48 hrs, media was collected analyzed via the Proteome Profiler Human Protease Array Kit (R&D Systems). Relative protein amounts of the indicated proteins were quantified via ImageJ. FIG. 10A, MMP1; FIG. 10B, MMP2; FIG. 10C, MMP3; FIG. 10D, MMP8; FIG. 10E, MMP9; FIG. 10F, MMP13; FIG. 10G. Cathepsin A; FIG. 10H, Cathepsin B; FIG. 10I, Cathepsin C; FIG. 10J, Cathepsin S; FIG. 10K, Cathepsin V; FIG. 10L, ASAM9.
Radiation can enhance the release of important enzymes, including those involved in invasion such as the matrix metalloproteinase family (MMP). We therefore determined if PDZ1i could affect the secretion of invasion-related proteins following radiation therapy. U1242 cells were treated for 2 hours prior to radiation therapy, and their media collected after 48 hours. […]
CM was harvested from an overnight culture of plated cells in serum-free DMEM+F12 media, filtered with […] filters and further concentrated 10-fold on an Amicon Ultra centrifugal filter—3K (Millipore, Billerica, Mass.). Protein levels were analyzed via the Proteome Profiler Human Protease Array Kit (R&D Systems, Minneapolis, Minn.). Relative quantification was performed by densitometry evaluation. X-ray films were scanned and analyzed with ImageJ software (NIH).

[2] = tested on: melanocytes; experiment: toxicity to melanocytes; format: cell-based; conditions: tested up to 100 μM
[3] = tested on: Im-PHFA cells overexpressing MDA-9/Syntenin; experiment: trans-well Matrigel invasion assay; format: cell-based, human; conditions: after MDA-9/Syntenin overexpression
Description: (§1) FIGS. 7A-7B. FIG. 7A. Im-PHFA, primary immortal human fetal astrocyte cells were infected with an MDA-9/Syntenin expression plasmid carrying adenovirus. 48 hrs post-infection both the control and MDA-9/Syntenin overexpressing cells were treated with DMSO or PDZ1i followed by seeding in a trans-well Matrigel invasion assay and stained after 24 hrs. FIG. 7B. T98G and U87 were treated with DMSO or PDZ1i and seeding in a trans-well Matrigel invasion assay and stained after 24 hrs. Invasion was quantified from 4 random fields. Data represents fold changes and average±S.D.
(§2) Invasion was measured using 24-well BioCoat cell culture inserts (BD Biosciences, Bedford, Mass.) with an 8-μm-porosity polyethylene terephthalate membrane coated with Matrigel Basement Membrane Matrix (100 μg/cm^2). Briefly, the Matrigel was allowed to rehydrate for 2 h at room temperature by adding warm, serum-free DMEM. The wells of the lower chamber were filled with medium containing 10% fetal bovine serum. […] Cells remaining on the upper surface of the filters were removed by wiping with a cotton swab, and invasion was determined by counting the cells that migrated to the lower side of the filter using at least 5 fields per insert at 100× magnification. […] Data from triplicate experiments were expressed as mean±95% confidence interval (CI).

[4] = tested on: T98G cells; experiment: trans-well Matrigel invasion assay; format: cell-based, human; conditions: PDZ1i versus DMSO
Description: as §1, §2

[5] = migration (SAR, Table 4); format: cell-based
[6] = tested on: U87 cells; experiment: MTT assay after radiation; format: cell-based, human; conditions: radiation plus PDZ1i versus radiation plus DMSO
Description: FIGS. 8A-8D. PDZ1i produces similar effects to mda-9/syntenin knockdown post-radiation. FIG. 8A. ImPHFA and U87 cells were treated with 50 μM PDZ1i 2 h prior to radiation and analyzed for colony formation after 14 d. FIG. 8B. U87 cells were treated with 50 μM PDZ1i 2 h prior to radiation and analyzed via MTT assay after 24 h. FIG. 8C. U87 cells were pretreated with 50 μM PDZ1i 2 h prior to radiation and subsequently seeded in a trans-well Matrigel invasion assay and stained after 24 h. Invasion was quantified from 5 random fields in FIG. 8D. Error bars=±s.d. *p<0.05, **p<0.01.
Clonogenic radiosurvival experiments were carried out as described previously (4,7). Briefly, cells were diluted, seeded on 6-cm dishes, and after the cells attached, treated with DMSO or PDZ1i (12.5, 25, or 50 μM) in the medium for 2 h before irradiation. Cells were incubated overnight, and the medium changed to nondrug containing medium 16 h postirradiation. Cells were incubated further for 14 days, stained with 2% Giemsa solution, and colonies consisting of 50 or more were counted. Cell viability was assessed through MTT analysis as described previously (8).

[7] = target: MDA-9/Syntenin PDZ2 only domain (Homo sapiens, UniProt O00560); experiment: NMR [15N,1H] HSQC binding, counter domain; conditions: up to 100 μM compound, 20 μM protein
MDA-9/Syntenin PDZ2 only domain, sequence (O00560 198-273 limits assumed): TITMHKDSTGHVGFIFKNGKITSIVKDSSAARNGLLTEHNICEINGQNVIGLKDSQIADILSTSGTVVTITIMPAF
Description: FIG. 52. Left panel, Docked structure of compound 113B7 on the surface of MDA-9/Syntenin. The docked structure is supported by NMR chemical shift mapping data. The titration (see later in FIG. 55 for chemical shift mapping and titration) allows for the calculation of an upper limit for the dissociation constant of the complex, Kd<10 μM. […] The [^15N,^1FI]-HSQC spectra of MDA-9/Syntenin PDZ2 only domain are reported in the top right panel (apo at 20 μM; in presence of 100 μM 113B7). In the bottom right panel can be seen the spectra of the PDZ domain from X11/mint scaffold protein (33% identity with PDZ1) are reported in absence (20 μM protein) and in presence of 100 μM 113B7.
Based on these studies and NMR guided initial docking calculations, >50 bi-dentate compounds were synthesized and tested, leading to compound 113B7 (FIG. 52). […] Moreover, as a way to further address specificity of our ligands, we also tested the most promising compounds against two closely related domains to the PDZs of MDA-9/Syntenin, such as the PDZ tandem protein Harmonin (36% identity to PDZ2 of MDA-9/Syntenin and 31% to PDZ1 of MDA-9/syntenin) or PDZ domain from X11/mint scaffold protein (33% identity with PDZ1), and no significant binding to these counter-screen proteins was observed (FIG. 52).

[8] = tested on: MMP-2 and MMP-9; experiment: western blotting and gelatin zymography of conditioned media; format: cell-based; conditions: 50 μM, 24 h

## Cc1cc(NC(=O)c2nc3[nH]c4c(c(=O)n3n2)CCC4)c(C)cc1NC(=O)CCc1nnc(-c2ccccc2)o1 [113B7, N-(2,5-dimethyl-4-(3-(5-phenyl-1,3,4-oxadiazol-2-yl)propanamido)phenyl)-8-oxo-5,6,7,8-tetrahydro-4H-cyclopenta[d][1,2,4]triazolo[1,5-a]pyrimidine-2-carboxamide]
[1]
  radiation gains in Cathepsin family members and ADAM9: eliminated these gains
[1]; media after 48 hrs
  secreted MMP levels (MMP2, MMP9) after radiation: reduced the levels
[2]
  toxicity to melanocytes: did not show any significant toxicity
[3]
  MDA-9/Syntenin-induced invasion: effective in inhibiting MDA-9/Syntenin-induced invasion
[4]
  invasion: effectively inhibited invasion
[5]
  % migr.: 62%
[6]
  proliferation following radiation: significantly decreased
[7]
  binding to PDZ2 domain: does not bind appreciably; also recorded: does not appreciably bind; also recorded: do not significantly bind
[8]
  MMP-2 and MMP-9 protein and activity level: downregulates

Reference: US11008325B2, “Inhibitors of cancer invasion, attachment, and/or metastasis” (VIRGINIA COMMONWEALTH UNIVERSITY, priority 2016, dated 2021)
